Key:
[1] = Cytotoxicity against mouse N2A cells assessed as maximal tolerant concentration; format: cell-based; settings: read-out: MTD
[2] = test system: ScN2a; assay: Antiprion activity against mouse prion protein RML infected mouse ScN2a cells assessed as drug level required for more than 99 percent reduction of PrPSc level by Western blot method; format: cell-based
[3] = test system: N167; assay: Antiprion activity against mouse prion protein 22L infected mouse N167 cells assessed as drug level required for more than 99 percent reduction of PrPSc level by Western blot method; format: cell-based
[4] = Antiprion activity against mouse prion protein RML infected mouse ScN2a cells assessed as reduction of PrPSc level by Western blot method; format: cell-based
[5] = Antiprion activity against mouse prion protein 22L infected mouse N167 cells assessed as reduction of PrPSc level by Western blot method; format: cell-based
[6] = Antiprion activity against human prion protein Fukuoka-1 infected mouse F3 cells assessed as reduction of PrPSc level by Western blot method; format: cell-based; settings: N2a #58 F3
[7] = target: Major prion protein (Homo sapiens) (UniProt P04156); assay: Binding affinity to truncated human PrP 121-231 at 50 uM by surface plasmon resonance method
[8] = Effective permeability of the compound at pH 7.4 at 30 to 50 uM by PAMPA assay; format: ADME; settings: read-out: Peff
[9] = test system: N2a #58 F3; assay: Antiprion activity against human prion protein Fukuoka-1 infected mouse F3 cells assessed as drug level required for more than 99 percent reduction of PrPSc level by Western blot method; format: cell-based
[10] = test system: MDCK; assay: Permeability from basolateral to apical side of in P-glycoprotein-mediated MDCK cells over expressing human MDR1 assessed as cell retention at 10 uM after 2 hrs; format: ADME, cell-based, Canis lupus familiaris; settings: dog
[11] = test system: MDCK; format: ADME, cell-based, Canis lupus familiaris; settings: dog, 2 h, 10 µM
[12] = test system: MDCK; assay: Permeability from apical to basolateral side of in P-glycoprotein-mediated MDCK cells over expressing human MDR1 assessed as cell retention at 10 uM after 2 hrs; format: ADME, cell-based, Canis lupus familiaris; settings: dog
[13] = test system: MDCK; assay: Permeability from basolateral to apical side of in wild type MDCK cells assessed as cell retention at 10 uM after 2 hrs; format: ADME, cell-based, Canis lupus familiaris; settings: dog
[14] = test system: human MDR1; format: ADME, cell-based, Canis lupus familiaris; settings: dog, MDCK-MDR1
[15] = test system: human MDR1; format: ADME, cell-based, Canis lupus familiaris; settings: dog, MDCK-MDR1; remark: listed apart in the source
[16] = test system: MDCK; assay: Permeability from apical to basolateral side of in wild type MDCK cells assessed as cell retention at 10 uM after 2 hrs; format: ADME, cell-based, Canis lupus familiaris; settings: dog
[17] = test system: MDCK; format: ADME, cell-based, Canis lupus familiaris; settings: dog, 2 h, 10 µM; remark: listed apart in the source
[18] = test system: MDCK; assay: Permeability from apical to basolateral side of in wild type MDCK cells assessed as adsorption on transwell at 10 uM after 2 hrs; format: ADME, cell-based, Canis lupus familiaris; settings: dog
[19] = test system: MDCK; assay: Permeability from basolateral to apical side of in wild type MDCK cells assessed as adsorption on transwell at 10 uM after 2 hrs; format: ADME, cell-based, Canis lupus familiaris; settings: dog
[20] = in vitro; settings: dog, MDCK
[21] = Permeability from basolateral to apical side of in wild type MDCK cells assessed as mass balance at 10 uM after 2 hrs; format: ADME, cell-based, Canis lupus familiaris; settings: dog, read-out: permeability
[22] = Permeability from apical to basolateral side of in wild type MDCK cells assessed as mass balance at 10 uM after 2 hrs; format: ADME, cell-based, Canis lupus familiaris; settings: dog, read-out: permeability
[23] = test system: human MDR1; assay: in vitro; settings: dog, MDCK-MDR1
[24] = test system: human MDR1; assay: Permeability from basolateral to apical side of in MDCK cells overexpressing human MDR1 assessed as mass balance at 10 uM after 2 hrs; format: ADME, cell-based, Canis lupus familiaris; settings: dog, read-out: permeability
[25] = test system: human MDR1; format: ADME, cell-based, Canis lupus familiaris; settings: dog, MDCK-MDR1; read-out: permeability
[26] = Solubility of the compound in phosphate buffer at 50 uM; format: physicochemical

Row | Compound | MNTC [1] [µM] | Activity [2] [µM] | Activity [3] [µM] | EC50 [4] [nM] | EC50 [5] [nM] | EC50 [6] [nM] | RUmax [7] [%] | Papp at up to 50 µM [8] [×10⁻⁶ cm/s] | Activity [9] [µM] | other results
1 | CN1CCN(c2ccc(Nc3ccnc4cc(Cl)ccc34)cc2)CC1 | 10 | 1 | 2 | 140 | 530 | 2040 | 165 | – | – | –
2 | COc1ccc2nc3cc(Cl)ccc3c(NC3CCN(Cc4ccc(Cl)cc4)CC3)c2c1 | 12 | 1 | 3 | 280 | 340 | – | 98.3 | 15.5 | – | –
3 | COc1ccc2nc3cc(Cl)ccc3c(NC3CCN(CCCc4ccccc4)CC3)c2c1 | 4 | 1 | 1 | 93 | 320 | 1040 | 115 | – | 3 | –
4 | COc1ccc2nc3cc(Cl)ccc3c(NCCCN(C)C)c2c1 | – | – | – | – | – | – | 164 | 13.3 | – | –
5 | COc1ccc2nc3cc(Cl)ccc3c(NC3CCN(Cc4ccc(C#N)cc4)CC3)c2c1 | 5 | 1 | 1 | 550 | 140 | – | 109 | 9.15 | – | –
6 | Clc1ccc2c(NC3CCN(Cc4ccccc4)CC3)c3c(nc2c1)CCCC3 | 5 | 1 | 3 | 540 | 420 | 1190 | 138 | – | 5 | –
7 | COc1ccc2nc3cc(Cl)ccc3c(N)c2c1 | – | – | – | – | – | – | 139 | 14.8 | – | –
8 | COc1ccc(CN2CCC(Nc3c4ccc(Cl)cc4nc4ccc(OC)cc34)CC2)cc1 | 10 | 1.5 | 2 | 82 | 520 | – | 160 | 7.54 | – | –
9 | CN1CCN(c2ccc(Nc3c4c(nc5cc(Cl)ccc35)CCCC4)cc2)CC1 | > 10 | 1 | – | 82 | – | – | 127 | – | – | –
10 | Clc1ccc2c(NC3CCN(Cc4ccccc4)CC3)ccnc2c1 | > 10 | 1 | 2 | 150 | 230 | 1200 | 114 | – | 3 | –
11 | COc1ccc2nc3cc(Cl)ccc3c(NC3CCN(Cc4ccc(C)cc4)CC3)c2c1 | 5 | 3 | 1 | 150 | 620 | 630 | 69.8 | – | 3 | –
12 | CCN(CC)CCCC(C)Nc1c2ccc(Cl)cc2nc2ccc(OC)cc12 (stereo not given) [QUINACRINE] | 2.5 | 0.8 | – | 230 | 590 | – | 87.3 | 19.3 | – | permeability [10]: 24.5%; permeability [11]: 3.9%; permeability [12]: 35.5%; permeability [13]: 27.7%; Papp A→B at 2 h, 10 µM [14]: 1.23 ×10⁻⁶ cm/s; Papp B→A at 2 h, 10 µM [15]: 6.7 ×10⁻⁶ cm/s; permeability [16]: 80.2%; permeability [17]: 5.5%; permeability [18]: 5.3%; permeability [19]: 3.2%
13 | COc1ccc2nc3cc(Cl)ccc3c(Nc3ccc(N4CCN(C)CC4)cc3)c2c1 | 2.5 | 0.4 | 1.5 | 100 | 420 | 680 | 120 | 8.13 | 1.5 | efflux ratio at 2 h, 10 µM [20]: 1.2; permeability [10]: 44.2%; recovery at 2 h, 10 µM [21]: 75.3%; recovery at 2 h, 10 µM [22]: 11.3%; permeability [11]: 3.1%; permeability [12]: 67%; permeability [13]: 27.5%; Papp A→B at 2 h, 10 µM [14]: 0.14 ×10⁻⁶ cm/s; Papp B→A at 2 h, 10 µM [15]: 0.34 ×10⁻⁶ cm/s; permeability [16]: 66.4%; efflux ratio at 2 h, 10 µM [23]: 2.4; permeability [17]: 6.1%; permeability [18]: 11.4%; permeability [19]: 3.5%; recovery at 2 h, 10 µM [24]: 73%; recovery at 2 h, 10 µM [25]: 12.6%
14 | COc1ccc2nc3cc(Cl)ccc3c(Nc3ccc(C(=O)N4CCN(C)CC4)cc3)c2c1 | 12 | 5 | 7 | 1230 | 4200 | 4100 | 232 | – | – | –
15 | COc1ccc2nc3cc(Cl)ccc3c(NCC#CCN3CCN(C)CC3)c2c1 | 8 | 1 | 3 | 27 | 990 | – | – | 11.5 | – | solubility [26]: Insoluble
16 | CCN(CC)CCNc1c2ccc(Cl)cc2nc2ccc(OC)cc12 | – | – | – | – | – | – | 153 | 21 | – | –
17 | CCN1CCN(c2ccc(Nc3c4ccc(Cl)cc4nc4ccc(OC)cc34)cc2)CC1 | 3 | 1 | – | 80 | 960 | – | 194 | 6.13 | – | –
18 | COc1ccc2nc3cc(Cl)ccc3c(N(C)c3ccccc3)c2c1 | 8 | 5 | – | 2510 | – | – | 43.2 | – | – | –
19 | COc1ccc2nc3cc(Cl)ccc3c(Nc3ccccc3)c2c1 | 5 | – | – | 540 | – | – | – | – | – | solubility [26]: Insoluble
20 | COc1ccc2nc3cc(Cl)ccc3c(NC3CCN(Cc4ccccc4)CC3)c2c1 | 2 | 1 | 1.5 | 420 | 490 | 800 | 65.4 | – | – | –
21 | CCN(CC)CCCNc1c2ccc(Cl)cc2nc2ccc(OC)cc12 | – | – | – | – | – | – | 162 | 22 | – | –
22 | COc1ccc2nc3cc(Cl)ccc3c(Nc3ccc(CN4CCN(C)CC4)cc3)c2c1 | 4 | 0.5 | 2 | 60 | 350 | 860 | 207 | – | 3 | –
23 | COc1ccc2nc3cc(Cl)ccc3c(NC3CC4CCC(C3)N4Cc3ccccc3)c2c1 (stereo not given) | 2 | 2 | 1 | 54 | 350 | 540 | – | 8.31 | 1.5 | solubility [26]: Insoluble
24 | Cn1c(=O)c2c(ncn2C)n(C)c1=O [CAFFEINE] | – | – | – | – | – | – | – | 2.46 | – | –
25 | C=C[C@H]1C[N@@]2CC[C@H]1C[C@@H]2[C@@H](O)c1ccnc2ccc(OC)cc12 [QUINIDINE] | – | – | – | – | – | – | – | – | – | Papp [8]: 11.5 ×10⁻⁶ cm/s
26 | COc1ccc2nc3cc(Cl)ccc3c(Nc3ccc(N4CCN(C(C)=O)CC4)cc3)c2c1 | 5 | 0.1 | – | 35 | – | – | 210 | 8.79 | – | –
27 | COc1ccc2nc3cc(Cl)ccc3c(NC3CCN(CCc4ccccc4)CC3)c2c1 | 2 | 0.5 | 1 | 130 | 230 | 190 | 174 | 7.68 | 2 | –
28 | COc1ccc2nc3cc(Cl)ccc3c(NC3CCN(CCc4ccc(C)cc4)CC3)c2c1 | 3 | 1 | 1 | 76 | 300 | 690 | 148 | 7.39 | 3 | –
29 | CCN(CC)CCCCNc1c2ccc(Cl)cc2nc2ccc(OC)cc12 | – | – | – | – | – | – | 178 | 16.4 | – | –
30 | COc1ccc2nc3cc(Cl)ccc3c(Nc3ccc(CN4CCCCC4)cc3)c2c1 | 5 | 0.5 | 1 | 99 | 510 | 640 | 144 | 5.28 | 3 | –
